Experimental findings from patent publication US9067924B2, “1,4 thiazepines/sulfones as BACE1 and/or BACE2 inhibitors” (HOFFMANN-LA ROCHE INC., priority 2011, dated 2015) are described below.

Assay [1] concerns the target BACE1 (Homo sapiens (Human), UniProt P56817). Kind of assay: Cellular Aβ-lowering assay. It counts as cell-based. Particulars: HEK293 cells expressing human APP695, Aβ40 in supernatant by ELISA. The protocol: Cellular Aβ-Lowering Assay:
Human HEK293 cells which are stably transfected with a vector expressing a cDNA of the human APP wt gene (APP695) were used to assess the potency of the compounds in a cellular assay. The cells were seeded in 96-well microtiter plates in cell culture medium (Iscove, plus 10% (v/v) fetal bovine serum, glutamine, penicillin/streptomycin) to about 80% confluence and the compounds were added at a 10× concentration in 1/10 volume of medium without FCS containing 8% DMSO (final concentration of DMSO was kept at 0.8% v/v). After 18-20 hrs incubation at 37° C. and 5% CO2 in a humidified incubator the culture supernatant was harvested for the determination of Aβ40 concentrations. 96 well ELISA plates (e.g., Nunc MaxiSorb) were coated with monoclonal antibody which specifically recognize the C-terminal end of Aβ40 (Brockhaus et al., NeuroReport 9, 1481-1486; 1998). After blocking of non-specific binding sites with e.g. 1% BSA and washing, the culture supernatants were added in suitable dilutions together with a horseradish peroxidase-coupled Aβ detection antibody (e.g., antibody 4G8, Senetek, Maryland Heights, Mo.) and incubated for 5 to 7 hrs. Subsequently the wells of the microtiter plate were washed extensively with Tris-buffered saline containing 0.05% Tween 20 and the assay was developed with tetramethylbenzidine/H2O2 in citric acid buffer. After stopping the reaction with one volume 1 N H2SO4 the reaction was measured in an ELISA reader at 450 nm wavelength. The concentrations of Aβ in the culture supernatants were calculated from a standard curve obtained with known amounts of pure Aβ peptide.
(In general: ELISA stands for enzyme-linked immunosorbent assay.)

For assay [2], the target named is BACE2 (Rattus norvegicus (Rat), UniProt Q6IE75). Kind of assay: Assay for BACE inhibition by measuring cellular TMEM27 cleavage. The class given is cell-based. Particulars: INS-TMEM27 (INS1e-derived) cells, shed hTMEM27 by ELISA. An excerpt:
Assay for BACE Inhibition by Measuring Cellular TMEM27 Cleavage:
The assay uses the principle of inhibition of human TMEM27 cleavage by endogenous cellular BACE2 in the Ins1e rat cell line and shedding from the cell surface into the culture medium, followed by detection in an ELISA assay Inhibition of BACE2 prevents the cleavage and shedding in a dose-dependent manner.
The stable cell line “INS-TMEM27” represents an INS1e-derived cell line with inducible expression (using the TetOn system) of full-length hTMEM27 in a doxycycline-dependent manner. The cells are cultured throughout the experiment in RPMI1640+Glutamax (Invitrogen) Penicillin/Streptomycin, 10% Fetal bovine serum, […], […], 100 micrograms/ml G418 and 100 microgram/ml hygromycin and are grown inadherent culture at 37° C. in a standard CO2 cell culture incubator.
INS-TMEM27 cells are seeded in 96-well plates. After 2 days in culture, BACE2 inhibitor is added in a range of concentrations as required by the assay and after a further two hours, doxycycline is added to a final concentration of 500 ng/ml. The cells are incubated for a further 46 hours and the supernatant harvested for detection of shed TMEM27.
An ELISA assay (using a pair of mouse anti-human-TMEM27 antibodies, raised against the extracellular domain of TMEM27) is used for detection of TMEM27 in the culture medium. An EC50 for BACE2 inhibition is calculated using the ELISA readout for each inhibitor concentration with standard curve-fitting software such as XLFit for the Excel spreadsheet program.

Molecules are shown by their SMILES. pIC50: −log10 of the molar value.

Chain of BACE1 (P56817 46-501): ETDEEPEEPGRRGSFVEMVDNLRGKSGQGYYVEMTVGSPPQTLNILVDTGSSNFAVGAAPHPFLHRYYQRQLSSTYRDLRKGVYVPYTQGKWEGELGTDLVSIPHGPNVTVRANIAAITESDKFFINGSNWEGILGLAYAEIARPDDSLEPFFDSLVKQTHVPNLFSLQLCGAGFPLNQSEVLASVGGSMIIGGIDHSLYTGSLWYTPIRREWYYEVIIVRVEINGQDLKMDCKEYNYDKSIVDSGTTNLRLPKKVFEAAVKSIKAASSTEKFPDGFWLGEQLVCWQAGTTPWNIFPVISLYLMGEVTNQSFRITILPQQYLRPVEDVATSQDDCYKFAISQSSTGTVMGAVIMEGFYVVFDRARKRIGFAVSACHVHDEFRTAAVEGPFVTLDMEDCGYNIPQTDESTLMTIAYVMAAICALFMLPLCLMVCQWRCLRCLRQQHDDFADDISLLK
Chain of BACE2 (Q6IE75 63-514): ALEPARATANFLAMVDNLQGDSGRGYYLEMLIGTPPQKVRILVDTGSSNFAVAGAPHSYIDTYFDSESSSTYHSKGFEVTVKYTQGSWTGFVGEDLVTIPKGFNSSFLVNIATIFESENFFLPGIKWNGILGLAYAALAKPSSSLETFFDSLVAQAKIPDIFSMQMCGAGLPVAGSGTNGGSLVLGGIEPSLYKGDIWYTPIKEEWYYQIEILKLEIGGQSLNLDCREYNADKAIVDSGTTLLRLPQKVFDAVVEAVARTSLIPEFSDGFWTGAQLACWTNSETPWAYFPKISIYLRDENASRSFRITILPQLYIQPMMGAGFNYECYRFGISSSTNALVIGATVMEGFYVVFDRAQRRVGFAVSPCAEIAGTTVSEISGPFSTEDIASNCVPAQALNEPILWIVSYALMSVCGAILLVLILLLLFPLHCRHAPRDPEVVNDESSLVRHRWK

As usually defined, the pIC50 is the negative decadic logarithm of the IC50, by convention in mol/L. The molecule `C[C@]1(c2cc(NC(=O)c3ccc(C#N)cn3)ccc2F)N=C(N)CS(=O)(=O)[C@H]2COC[C@@H]21` (relative stereo) [Example 14, 5-Cyano-pyridine-2-carboxylic acid [3-((3aR,8S,8aS)-rel-6-amino-8-methyl-4,4-dioxo-3,3a,4,5,8,8a-hexahydro-1H-2-oxa-4λ^6-thia-7-aza-azulen-8-yl)-4-fluoro-phenyl]-amide] had a negative-log IC50 (pIC50) in assay [1] of 7.11.

As to `CC1SCC[C@@](C)(c2cc(NC(=O)c3ccc(F)cn3)ccc2F)N=C1N` (stereo in doubt) [Example 5, 5-Fluoro-pyridine-2-carboxylic acid [3-((S)-3-amino-2,5-dimethyl-2,5,6,7-tetrahydro-[1,4]thiazepin-5-yl)-4-fluoro-phenyl]-amide], the figures for the pIC50 in assay [1] and in assay [2] were 6.77 and 7.68, respectively.

For the molecule `CC1SCC[C@@](C)(c2cc(NC(=O)c3ccc(Cl)cn3)ccc2F)N=C1N` (stereo in doubt) [Example 6, 5-Chloro-pyridine-2-carboxylic acid [3-((S)-3-amino-2,5-dimethyl-2,5,6,7-tetrahydro-[1,4]thiazepin-5-yl)-4-fluoro-phenyl]-amide], the negative logarithm of the IC50 (pIC50) in assay [1] is 6.85; in assay [2], 8.05.

On to `CC1C(N)=N[C@](C)(c2cc(NC(=O)c3ccc(F)cn3)ccc2F)CCS1(=O)=O` (stereo in doubt) [Example 7, 5-Fluoro-pyridine-2-carboxylic acid [3-((S)-3-amino-2,5-dimethyl-1,1-dioxo-2,5,6,7-tetrahydro-1H-1λ^6-[1,4]thiazepin-5-yl)-4-fluoro-phenyl]-amide], for which the pIC50 was 8.40 in assay [1] and 8.70 in assay [2].

Consider `CC1C(N)=N[C@](C)(c2cc(NC(=O)c3[nH]ncc3Cl)ccc2F)CCS1(=O)=O` (stereo in doubt) [Example 9, 4-Chloro-2H-pyrazole-3-carboxylic acid [3-((S)-3-amino-2,5-dimethyl-1,1-dioxo-2,5,6,7-tetrahydro-1H-1λ^6-[1,4]thiazepin-5-yl)-4-fluoro-phenyl]-amide], for which the pIC50 was 6.52 in assay [1] and 6.07 in assay [2].

For the molecule `C[C@@]1(c2cc(NC(=O)c3ccc(Cl)cn3)ccc2F)CCSCC(N)=N1` [Example 1, 5-Chloro-pyridine-2-carboxylic acid [3-((S)-3-amino-5-methyl-2,5,6,7-tetrahydro-[1,4]thiazepin-5-yl)-4-fluoro-phenyl]-amide], the negative logarithm of the IC50 (pIC50) in assay [1] is 8.20; in assay [2], 6.78.

Take `C[C@@]1(c2cc(NC(=O)c3ccc(F)cn3)ccc2F)CCSCC(N)=N1` [Example 2, 5-Fluoro-pyridine-2-carboxylic acid [3-((S)-3-amino-5-methyl-2,5,6,7-tetrahydro-[1,4]thiazepin-5-yl)-4-fluoro-phenyl]-amide]: the values for the negative-log IC50 (pIC50) in assay [1] and in assay [2] were 7.80 and 7.10, respectively.

`C[C@@]1(c2cc(NC(=O)c3ccc(Cl)cn3)ccc2F)CCS(=O)(=O)CC(N)=N1` [Example 3, 5-Chloro-pyridine-2-carboxylic acid [3-((S)-3-amino-5-methyl-1,1-dioxo-2,5,6,7-tetrahydro-1H-1λ^6-[1,4]thiazepin-5-yl)-4-fluoro-phenyl]-amide]: the pIC50 was 8.52 in assay [1] and 8.30 in assay [2].

With `C[C@@]1(c2cc(NC(=O)c3ccc(F)cn3)ccc2F)CCS(=O)(=O)CC(N)=N1` [Example 4, 5-Fluoro-pyridine-2-carboxylic acid [3-((S)-3-amino-5-methyl-1,1-dioxo-2,5,6,7-tetrahydro-1H-1λ^6-[1,4]thiazepin-5-yl)-4-fluoro-phenyl]amide], the negative logarithm of the IC50 (pIC50) in assay [1] was 7.70; in assay [2] it was 8.40.

As for `CC1C(N)=N[C@](C)(c2cc(NC(=O)c3ccc(Cl)cn3)ccc2F)CCS1(=O)=O` (stereo partly drawn) [Example 8, 5-Chloro-pyridine-2-carboxylic acid [3-((S)-3-amino-2,5-dimethyl-1,1-dioxo-2,5,6,7-tetrahydro-4H-1λ^6-[1,4]thiazepin-5-yl)-4-fluoro-phenyl]-amide], the negative logarithm of the IC50 (pIC50) in assay [1] was 7.52; in assay [2], 7.80.

Consider `CC1(C)C(N)=N[C@](C)(c2cc(NC(=O)c3ccc(F)cn3)ccc2F)CCS1(=O)=O` [Example 10, 5-Fluoro-pyridine-2-carboxylic acid [3-((S)-3-amino-2,2,5-trimethyl-1,1-dioxo-2,5,6,7-tetrahydro-1H-1λ^6-[1,4]thiazepin-5-yl)-4-fluoro-phenyl]-amide], for which the negative logarithm of the IC50 (pIC50) in assay [1] was 7.21; in assay [2], 6.74.

`CC1(C)C(N)=N[C@](C)(c2cc(NC(=O)c3[nH]ncc3Cl)ccc2F)CCS1(=O)=O` [Example 11, 4-Chloro-2H-pyrazole-3-carboxylic acid [3-((S)-3-amino-2,2,5-trimethyl-1,1-dioxo-2,5,6,7-tetrahydro-1H-1λ^6-[1,4]thiazepin-5-yl)-4-fluoro-phenyl]-amide]: the pIC50 in assay [1] is 5.64.

As for `CC1(C)C(N)=N[C@](C)(c2cc(NC(=O)c3ccc(C#N)cn3)ccc2F)CCS1(=O)=O` [Example 12, 5-Cyano-pyridine-2-carboxylic acid [3-((S)-3-amino-2,2,5-trimethyl-1,1-dioxo-2,5,6,7-tetrahydro-1H-1λ^6-[1,4]thiazepin-5-yl)-4-fluoro-phenyl]-amide], in assay [1], the negative-log IC50 (pIC50) was 7.28.

For the molecule `N#Cc1ccc(C(=O)Nc2ccc(F)c([C@]3(C(F)F)CCS(=O)(=O)CC(N)=N3)c2)nc1` [Example 13, 5-Cyano-pyridine-2-carboxylic acid [3-((S)-3-amino-5-difluoromethyl-1,1-dioxo-2,5,6,7-tetrahydro-1H-1λ^6-[1,4]thiazepin-5-yl)-4-fluoro-phenyl]-amide], the negative logarithm of the IC50 (pIC50) in assay [1] was 6.59.
